From patent US20250019703A1, “PHARMACEUTICAL COMPOSITION FOR PREVENTION OR TREATMENT OF BLOOD CANCER COMPRISING SURF4 INHIBITOR” (PUSAN NATIONAL UNIVERSITY INDUSTRY-UNIVERSITY COOPERATION …, priority 2021, published 2025)

What was measured:
[1] = test system: THP1, HL60, and K562 cells; assay: Annexin V/7AAD apoptosis after tunicamycin treatment; assay type: cell-based, human; settings: tunicamycin 10 μM alone, FIG. 7
Method: (§1) Apoptosis was measured after treating SURF4 shRNA-transfected THP1, HL60, and K562 cells with tunicamycin. The transfected SURF4 shRNA was the same as in Example 1-(1). Specifically, the concentration of tunicamycin treated in the THP1, HL60, and K562 cells was 10 μM, and after transfecting the cells with SURF4 shRNA, the cells were treated with tunicamycin 7 to 10 days later. Afterward, cells of each type were collected and suspended with an Annexin V binding buffer, and then Annexin V-FITC and 7AAD were added to perform measurement using a FACS flow cytometer.

[2] = test system: THP1, HL60, and K562 cells; assay: Annexin V/7AAD apoptosis after paclitaxel treatment; assay type: cell-based, human; settings: paclitaxel 0.5 μM alone, FIG. 5
Method: as §1, with “with paclitaxel.” for “with tunicamycin.”, “of paclitaxel” for “of tunicamycin”, “was 0.5” for “was 10”, “with paclitaxel” for “with tunicamycin”

[3] = test system: STING in myeloid leukemia cells; assay: Apoptosis and pTBK1 expression after cGAMP treatment; assay type: cell-based; settings: cells treated with cGAMP; FIG. 15B
Method: Based on a report that STING, one of the endoplasmic reticulum membrane proteins, induces apoptosis and binds to SURF4 and STAT6, cells were treated with cGAMP, which induces STING. Specifically, cells were collected and lysed with a lysis buffer to extract proteins, which were then separated on a 10% SDS-PAGE gel and transferred to a membrane. pJNK, JNK, BAX, caspase 9, cleaved caspase 9, caspase 3, cleaved caspase 3, PARP, IRE1α, GRP78, PERK, pelF2α, elF2α, ATF4, CHOP, pSTAT6, STAT6, STING, pTBK1, and actin antibodies were each added, allowed to stand at 4° C. for 16 hours, and then a secondary antibody was added and allowed to stand at room temperature for one hour. Afterward, the resulting mixture was allowed to react with an ECL reagent, and the ECL was measured using a chemiluminescence image analyzer.

[4] = test system: pSTAT6 in THP1 and HL60 cells; assay: Western blot of pSTAT6 after IL4 treatment; assay type: cell-based, human; settings: IL4 5 ng/ml for 60 minutes, FIG. 12
Method: Based on a report that apoptosis is induced by pSTAT6 through IL4 in leukemia cells, the expression of pSTAT6 was confirmed by treating a leukemia cell line with IL4, which induces STAT6. Specifically, THP1 and HL60 cells transfected with 6 μg of SURF4 shRNA were lysed by treating them with IL4 (5 ng/ml) for 60 minutes, and then Western blot was performed, and the SURF4 expression in the THP1 and HL60 cells transfected with SURF4 shRNA was measured by qRT-PCR. The cells were lysed with a lysis buffer to extract proteins, which were then separated on a 10% SDS-PAGE gel and transferred to a membrane. pJNK, JNK, BAX, caspase 9, cleaved caspase 9, caspase 3, cleaved caspase 3, PARP, IRE1α, GRP78, PERK, pelF2α, elF2α, ATF4, CHOP, pSTAT6, STAT6, STING, pTBK1, and actin antibodies were each added, allowed to stand at 4° C. for 16 hours, and then a secondary antibody was added and allowed to stand at room temperature for one hour. Afterward, the resulting mixture was allowed to react with an ECL reagent, and the ECL was measured using a chemiluminescence image analyzer. In addition, RNA was extracted from the cells using an RNA extraction kit, and cDNA was synthesized from the RNA using a cDNA synthesis kit. A qRT-PCR analysis was performed using the synthesized cDNA, SURF4 primers, and a SYBR green.

For tunicamycin, the apoptosis [1] was “induced apoptosis”.

`CC(=O)O[C@H]1C(=O)[C@@]2(C)[C@H]([C@H](OC(=O)c3ccccc3)[C@]3(O)C[C@H](OC(=O)[C@H](O)[C@@H](NC(=O)c4ccccc4)c4ccccc4)C(C)=C1C3(C)C)[C@]1(OC(C)=O)CO[C@@H]1C[C@@H]2O` [paclitaxel] was tested, and the apoptosis [2] was “induced apoptosis”.

`Nc1nc2c(ncn2[C@@H]2O[C@@H]3COP(=O)(O)O[C@H]4[C@@H](O)[C@H](n5cnc6c(N)ncnc65)O[C@@H]4COP(=O)(O)O[C@@H]2[C@@H]3O)c(=O)[nH]1` [cGAMP, cyclic guanosine monophosphate-adenosine monophosphate] was tested, and the pTBK1 expression [3] was “pTBK1 downstream of STING increased”.

B1: IL4: interleukin-4, which induces STAT6 / the expression of pSTAT6 (protein, UniProt P05112 25-153, looked up)
Interleukin-4: HKCDITLQEIIKTLNSLTEQKTLCTELTVTDIFAASKNTTEKETFCRAATVLRQFYSHHEKDTRCLGATAQQFHRHKQLIRFLKRLDRNLWGLAGLNSCPVKEANQSTLENFLERLKTIMREKYSKCSS
B1 was tested, and the “pSTAT6 expression (Western blot)” value [4] was “pSTAT6 increased in both the control cells and the cells transfected with SURF4 shRNA”.
